Assay results taken from patent US11439657B2, “Cancer stem cell growth inhibitor using miRNA” (CancerStem Tech Inc., priority 2017, dated 2022).
Entries after “also recorded” stand apart in the source; their conditions may differ.

Tests used:
[1] = test system: solid tumor from the cancer stem cell population (ZsGreen+); test: Mouse subcutaneous solid tumor model test; assay type: in vivo, BALB/cA nude mice
Method: In 100 ml of distilled water, 0.37 g of NaHCO3, 90 μl of NaH2PO4.2H2O (1M) and 180 μl of CaCl2 (1 M) were added in this order and dissolved, and the pH was adjusted to 7.5 with 1N HCl. This was filtered through 0.2 μm diameter filter. Per 1 ml of the resultant buffer, 2 μg of miRNA and 4 μl of CaCl2 (1 M) were mixed and incubated in a water bath at 37° C. for 30 minutes. Then, spin down was performed at 15000 rpm×5 minutes. The resultant pellet was dispersed in physiological saline (containing 0.5 wt % albumin). Accordingly, a dispersion of composite particles containing the miRNA in carbonate apatite particles was obtained. The resultant dispersion was subjected to ultrasonic vibration treatment for 10 minutes just prior to testing. Note that the ultrasonic vibration treatment was performed for 10 minutes using a water bath with an ultrasonic vibration function, in which the dispersion contained in a plastic container was floated on water set to 20° C., under conditions of high frequency output of 55 W and oscillation frequency of 38 kHz. The preparation obtained in this way was immediately used for the tests described below.
Note that it is confirmed in the measurement using a scanning probe microscope that the dispersion of ultrasonic vibration treatment includes composite particles composed of carbonate apatite nanoparticles containing the miRNA having an average particle diameter of 50 nm or less. It is also confirmed that the resultant composite particles contain about 20 μg of the miRNA per 1 mg of carbonate apatite.
The cancer stem cell population (ZsGreen+) obtained in Test Example 1 was subcutaneously injected at 5×10^5 cells to the left and right backs of 6 to 8 weeks age BALB/cA nude mice (manufactured by CLEA Japan, Inc.) to produce solid tumor model mice. When the tumor reached about 20 mm^3 in size, the mice were randomly divided into an hsa-miR-136-5p administration group (hsa-miR-136-5p), an untreated group, and a negative control group (control miRNA). In the hsa-miR-136-5p administration group, the day at which the tumor reached about 20 mm^3 in size was 0th day. On the 0th, 3rd, 5th, 7th, 10th, 12th, 14th, 17th and 19th days, carbonate apatite nanoparticles containing the hsa-miR-136-5p were intravenously injected into the tail vein at 40 μg/dose in terms of the amount of hsa-miR-136-5p. In the negative control group, carbonate apatite nanoparticles containing a control miRNA (SEQ ID NO: 9) were intravenously injected into the tail vein at the same schedule and dose as those for the miRNA136-5p administration group. In the untreated group, no drug was administered. During the test period, the tumor volume on the back of the mouse (longer diameter×shorter diameter×shorter diameter×1/2) was measured over time, and on the 24th day, the tumor was excised from the mice and observed for size, and its weight was measured.
A mouse subcutaneous solid tumor model test was conducted in the same manner as in Test Example 2 except that hsa-miR-3065-3p was used in place of hsa-miR-136-5p.
A mouse subcutaneous solid tumor model test was conducted in the same manner as in Test Example 2 except that hsa-miR-181-5p was used in place of hsa-miR-136-5p.

[2] = test system: human pancreatic cancer cells (PSN-1 line); test: Antitumor effect on human pancreatic cancer cells (2), cell count after transfection; assay type: cell-based; details: 10 pmol/well, 48 hours, FIG. 9
Method: (§1) A cell suspension prepared by suspending human pancreatic cancer cells (Bxpc3 line) in D-MEM medium (containing 10% by volume FBS) was seeded in each well of a 24-well plate at 3×10^3 cells/well, followed by culture at 37° C. overnight. Thereafter, according to the lipofectamin 2000 protocol, each miRNA was transfected at 10 pmol/well, and 48 hours later, the cells were counted. In addition, tests were also conducted under the same condition on a case where the miRNA was not introduced (untreated group), a case where hsa-miR-34a (SEQ ID NO: 8) was used (positive control) in place of the miRNA, and a case where a control miRNA (SEQ ID NO: 9) was used (control miRNA, negative control) in place of the selected miRNA.
As to hsa-miR-136-5p, hsa-miR-3065-3p and hsa-miR-181a-5p, evaluation was performed of the antitumor effect on human pancreatic cancer cells. The specific test method is the same as that for Test Example 4 except that a PSN-1 line was used as human pancreatic cancer cells.

[3] = test system: human pancreatic cancer cells (Bxpc3 line); test: Antitumor effect on human pancreatic cancer cells (1), cell count after transfection; assay type: cell-based; details: 10 pmol/well, FIG. 8; for antitumor effect: 48 hours, positive control hsa-miR-34a; for proliferation inhibitory effect on pancreatic cancer cells: cells counted 48 hours later
Method: as §1

[4] = test system: cancer stem cell population (ZsGreen+) established from pancreatic cancer cell line Panc-1; test: Screening of miRNAs: cell count (cell viability) of the cancer stem cell population after transfection; assay type: cell-based, human; details: miRNA 10 pmol/well, lipofectamin 2000, cells counted 48 and 72 hours later, FIG. 4
Source text: A cancer stem cell line was established by transducing a pancreatic cancer cell line (Panc-1) with an ODC (Ornithine Decarboxylase)-Degron system capable of visualizing low metabolism that is a property of cancer stem cells using a retrovirus vector (FIG. 1a). The base sequence coding the used ODC-Degron is as set forth in SEQ ID NO: 10. Usually, cancer stem cells are so 26s proteasome hypometabolic that they cannot degrade the introduced fluorescently labeled Ornithine Decarboxylase Degron, and thus the fluorescent protein sufficiently accumulates to provide visualization.
However, even when the ODC-degron system was introduced into the pancreatic cancer cell line Panc-1, only about 0.06% cells emitting fluorescence (green) were obtained in total. With such a small number of cancer stem cells, a series of experiments including drug screening cannot be performed. Accordingly, further enrichment of cancer stem cells provided a cancer stem cell population in which cells having observed fluorescent coloring (i.e., cancer stem cells) accounted for about 81.18% in total (FIG. 1b). The obtained cancer stem cell population was designated as ZsGreen+.
A cell suspension prepared by suspending the cancer stem cell population (ZsGreen+) in a medium (DMEM medium containing 10% by volume FBS) was seeded in each well of a 24-well plate at a density of 5000 to 10000 cells/well, followed by culture at 37° C. overnight. Thereafter, according to the lipofectamin 2000 protocol, each miRNA was transfected at 10 pmol/well, and 48 hours and 72 hours later, the cells were counted. In addition, tests were also conducted under the same condition on a case where the miRNA was not introduced (untreated group, control), a case where has-miR-34a (SEQ ID NO: 8) was used (positive control) in place of the selected miRNA, and a case where a control miRNA (SEQ ID NO: 9) was used (NC1, negative control) in place of the selected miRNA. In addition, for comparison, the non-cancer stem cell population (ZsGreen−) was used in place of the cancer stem cell population (ZsGreen+) to conduct tests under the same condition.
The ratio of the number of cells under each condition to the number of control cells into which the miRNA was not introduced (cell viability, %) was determined.

Substance | tumor excised on the 24th day (size and weight) as compared to the untreated group and the negative control group ([1]; 24th day, carbonate apatite nanoparticles, 40 μg/dose i.v., FIGS. 5b and 5c) | tumor volume as compared to the untreated group and the negative control group ([1]; after the 7th day, carbonate apatite nanoparticles, 40 μg/dose i.v., FIG. 5a) | antitumor effect as compared to the untreated group and the negative control group (control miRNA) ([1]; carbonate apatite nanoparticles containing the miRNA, 40 μg/dose, tail vein i.v., days 0-19, tumor excised on the 24th day) | antitumor effect [2] | proliferation inhibitory effect on pancreatic cancer cells [2] | antitumor effect [3] | proliferation inhibitory effect on pancreatic cancer cells [3] | proliferation inhibitory effect on cancer stem cells (cell viability) [4] | tumor volume as compared to the untreated group and the negative control group ([1]; from the 17th day, carbonate apatite nanoparticles, 40 μg/dose i.v., FIG. 6)
hsa-miR-136-5p: human-derived miR-136-5p; base sequence set forth in SEQ ID NO: 1 as mature miRNA (ACUCCAUUUGUUUUGAUGAUGGA; listed as RNA, chemistry not given here; listed as Homo sapiens) | significantly smaller | significantly smaller tumor volume | remarkably higher antitumor effect | particularly remarkable antitumor effect | strong proliferation inhibitory effect | much better antitumor effect than that of hsa-miR-34a; also recorded: particularly remarkable antitumor effect | strong proliferation inhibitory effect | effectively suppress proliferation of cancer stem cells; also recorded: prominent proliferation inhibitory effect | –
hsa-miR-3065-3p: human-derived miR-3065-3p; base sequence set forth in SEQ ID NO: 2 as mature miRNA (UCAGCACCAGGAUAUUGUUGGAG; listed as RNA, chemistry not given here; listed as Homo sapiens) | – | – | – | – | strong proliferation inhibitory effect | much better antitumor effect than that of hsa-miR-34a | strong proliferation inhibitory effect | effectively suppress proliferation of cancer stem cells; also recorded: prominent proliferation inhibitory effect | significantly reduced
